Data set [1] in a line: Drug uptake in human HeLa cells assessed as drug penetration incubated for 4 hrs by CA-TAMRA based CAPA assay. The format is ADME, cell-based.
Data set [2] in a line: Binding affinity to N-terminal hexahistidine-tagged recombinant human Mint2-PARM (364 to 570 residues) in presence of probe [(TAMRA)-NNG-QNGYENPTYKFFEQMQN] by fluorescense polarization assay.
Data set [3] is described as follows: Metabolic stability in human plasma assessed as half life at 500 uM incubated for 480 mins by RP UPLC analysis. Format: ADME, cell-free.
Data set [4] in a line: Binding affinity to N-terminal hexahistidine-tagged recombinant human Mint2-PARM (364 to 570 residues) by ITC method.
Data set [5] deals with trypsin. Briefly: Stability of compound in PBS at pH 7.4 assessed as bovine pancreas trypsin mediated degradation by measuring half life at 100 uM measured after 120 mins by RP UPLC analysis. The format is ADME, tissue-based, Bos taurus. To be noted: cattle.
The target in data set [6] is proteinase K (Engyodontium album, UniProt P06873). Briefly: Stability of compound in PBS at pH 7.4 assessed as Parengyodontium album proteinase K mediated degradation by measuring half life at 100 uM measured after 120 mins by RP UPLC analysis. Format: ADME.
Chain of proteinase K (P06873 whole entry, the tested form may be a part): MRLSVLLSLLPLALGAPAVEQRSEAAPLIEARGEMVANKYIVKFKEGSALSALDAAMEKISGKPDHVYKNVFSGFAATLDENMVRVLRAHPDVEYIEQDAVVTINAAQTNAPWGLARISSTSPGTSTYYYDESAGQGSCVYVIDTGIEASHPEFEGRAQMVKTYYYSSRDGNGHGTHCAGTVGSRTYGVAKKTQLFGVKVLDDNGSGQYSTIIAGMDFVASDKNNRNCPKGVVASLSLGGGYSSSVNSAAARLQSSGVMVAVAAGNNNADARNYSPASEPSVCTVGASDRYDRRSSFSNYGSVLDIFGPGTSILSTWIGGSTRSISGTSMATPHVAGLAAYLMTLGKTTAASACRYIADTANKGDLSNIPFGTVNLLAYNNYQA
The species named for data set [7] is Homo sapiens. Briefly: Binding affinity to N-terminal hexahistidine-tagged recombinant human Mint2-PARM (364 to 570 residues) assessed as change in entropy by ITC method.
Data set [8] deals with Streptomyces griseus protease. Briefly: Stability of compound in PBS at pH 7.4 assessed as Streptomyces griseus protease mediated degradation by measuring half life at 100 uM measured after 120 mins by RP UPLC analysis. Format: ADME.
For data set [9], the system named is SH-SY5Y. Briefly: Cytotoxicity against human SH-SY5Y cells assessed as reduction in cell viability at 100 uM incubated for 48 hrs by MTT assay. Format: toxicity, cell-based.

pEC50, pKd, pKi: −log10 of the molar value. *1 amine or outer side, *2 acyl side, *3 side chain or, on linkers, in order; H or OH if unused. Where a SMILES comes first, the peptide text is derived from it. Bridges are numbered along the chain shown (N, C = ends). Triazole bridges read from a SMILES are 1,4-linked. [ ]: non-standard residue; d: D form. The star is where a group is joined. Perfluorobiphenyl(4,4') = Fc1c(F)c([*:1])c(F)c(F)c1-c1c(F)c(F)c([*:2])c(F)c1F; Pyridine(2,6-diCH2) = c1cc(C[*:1])nc(C[*:2])c1; Lys(N3) = [N-]=[N+]=NCCCC[C@H](N)C(=O)O; NH(CH2CH2O)2(CH2)6Cl = ClCCCCCCOCCOCCN*; Orn(N3) = [N-]=[N+]=NCCC[C@H](N)C(=O)O; pXylylene = c1cc(C[*:2])ccc1C[*:1]; S8 = C=CCCCCCC[C@](C)(N)C(=O)O; Suc = O=C(CCC(=O)[*:2])[*:1]; S5 = C=CCCC[C@](C)(N)C(=O)O; Hpra = C#CCC[C@H](N)C(=O)O; Pra = C#CC[C@H](N)C(=O)O

With `C[C@@]1(C(=O)N[C@H](CCC(=O)O)C(=O)O)CCC/C=C\CCC[C@](C)(NC(=O)[C@@H]2CCCN2C(=O)[C@H](CC(N)=O)NC(=O)[C@H](CCC(=O)O)NC(=O)[C@H](Cc2ccc(O)cc2)NC(=O)CNC(=O)[C@H](CC(N)=O)NC(=O)CCC(=O)NCCOCCOCCCCCCCl)C(=O)N[C@@H](Cc2ccc(O)cc2)C(=O)N[C@@H](CCCCN)C(=O)N[C@@H](Cc2ccccc2)C(=O)N1`, the negative logarithm of the EC50 (pEC50) in data set [1] is 4.11.
`C[C@@]1(C(=O)N[C@@H](CCC(=O)O)C(=O)O)CCC/C=C\CCCCCC[C@](C)(NC(=O)[C@@H]2CCCN2C(=O)[C@H](CC(N)=O)NC(=O)[C@H](CCC(=O)O)NC(=O)[C@H](Cc2ccc(O)cc2)NC(=O)CNC(=O)[C@@H](N)CC(N)=O)C(=O)N[C@@H](Cc2ccc(O)cc2)C(=O)N[C@@H](CCCCN)C(=O)N[C@@H](Cc2ccccc2)C(=O)N1` (H-NGYENP[S8]YKF[S5]E-OH; staple (Z) 7-11): in data set [2], the pKi is 5.64.
On to `NCCCC[C@@H]1NC(=O)[C@H](Cc2ccc(O)cc2)NC(=O)[C@@H](NC(=O)[C@@H]2CCCN2C(=O)[C@H](CC(N)=O)NC(=O)[C@H](CCC(=O)O)NC(=O)[C@H](Cc2ccc(O)cc2)NC(=O)CNC(=O)[C@H](CC(N)=O)NC(=O)CCC(=O)NCCOCCOCCCCCCCl)CCSCc2ccc(cc2)CSCC[C@@H](C(=O)N[C@H](CCC(=O)O)C(=O)O)NC(=O)[C@H](Cc2ccccc2)NC1=O`, for which, in [1], the pEC50 was 4.84.
For `C[C@@]1(C(=O)N[C@@H](CCC(=O)O)C(=O)O)CCC/C=C\CCC[C@](C)(NC(=O)[C@@H]2CCCN2C(=O)[C@H](CC(N)=O)NC(=O)[C@H](CCC(=O)O)NC(=O)[C@@H](Cc2ccc(O)cc2)NC(=O)CNC(=O)[C@H](N)CC(N)=O)C(=O)N[C@@H](Cc2ccc(O)cc2)C(=O)N[C@@H](CCCCN)C(=O)N[C@@H](Cc2ccccc2)C(=O)N1`, the half-life at 500 µM in data set [3] worked out at 2.02 h. In addition, in data set [4], the pKd was 6.62. Also, the half-life at 100 µM in data set [5], in [6] and in data set [8] was greater than 2 h in each case. Besides, the TdeltaS in [7] is -1.44 kcal/mol. Moreover, the negative logarithm of the EC50 (pEC50) in data set [1] is 4.48. Also, the pKi in [2] was 6.30.
With `NCCCC[C@@H]1NC(=O)[C@H](Cc2ccc(O)cc2)NC(=O)[C@@H](NC(=O)[C@@H]2CCCN2C(=O)[C@H](CC(N)=O)NC(=O)[C@H](CCC(=O)O)NC(=O)[C@H](Cc2ccc(O)cc2)NC(=O)CNC(=O)[C@@H](N)CC(N)=O)CCCCNC(=O)C[C@@H](C(=O)N[C@@H](CCC(=O)O)C(=O)O)NC(=O)[C@H](Cc2ccccc2)NC1=O` (H-NGYENPKYKFDE-OH; lactam 7-11), in data set [3], the half-life at 500 µM was determined as 1.18 h. Besides, the negative-log Kd (pKd) in [4] was 5.24. For the same molecule, the half-life at 100 µM was greater than 2 h in data set [5], greater than 2 h in data set [6] and 0.45 h in data set [8]. The pEC50 in data set [1] is 4.11. In addition, the pKi in data set [2] was 6.00.
Take H-NGYENPTYKFFE-OH: in data set [5], the half-life at 100 µM was found to be 0.43 h. In data set [2], the negative-log Ki (pKi) is 5.40. Moreover, in data set [9], the Activity is 20%.
For `C[C@@H](O)[C@H](NC(=O)[C@@H]1CCCN1C(=O)[C@H](CC(N)=O)NC(=O)[C@H](CCC(=O)O)NC(=O)[C@H](Cc1ccc(O)cc1)NC(=O)CNC(=O)[C@H](CC(N)=O)NC(=O)CCC(=O)NCCOCCOCCCCCCCl)C(=O)N[C@@H](Cc1ccc(O)cc1)C(=O)N[C@@H](CCCCN)C(=O)N[C@@H](Cc1ccccc1)C(=O)N[C@@H](Cc1ccccc1)C(=O)N[C@@H](CCC(=O)O)C(=O)O` ({NH(CH2CH2O)2(CH2)6Cl-Suc}-NGYENPTYKFFE-OH), in data set [1], the pEC50 was 4.38.
For the molecule `NCCCC[C@@H]1NC(=O)[C@H](Cc2ccc(O)cc2)NC(=O)[C@@H](NC(=O)[C@@H]2CCCN2C(=O)[C@H](CC(N)=O)NC(=O)[C@H](CCC(=O)O)NC(=O)[C@H](Cc2ccc(O)cc2)NC(=O)CNC(=O)[C@@H](N)CC(N)=O)CCCn2cc(nn2)CC[C@@H](C(=O)N[C@@H](CCC(=O)O)C(=O)O)NC(=O)[C@H](Cc2ccccc2)NC1=O` (H-NGYENP[Orn(N3)]YKF[Hpra]E-OH; triazole 7-11), the negative-log Ki (pKi) in data set [2] was 4.19.
The same measure, in the same setting: the same measure for `NCCCC[C@@H]1NC(=O)[C@H](Cc2ccc(O)cc2)NC(=O)[C@@H](NC(=O)[C@@H]2CCCN2C(=O)[C@H](CC(N)=O)NC(=O)[C@H](CCC(=O)O)NC(=O)[C@H](Cc2ccc(O)cc2)NC(=O)CNC(=O)[C@@H](N)CC(N)=O)CSc2c(F)c(F)c(c(F)c2F)-c2c(F)c(F)c(c(F)c2F)SC[C@@H](C(=O)N[C@@H](CCC(=O)O)C(=O)O)NC(=O)[C@H](Cc2ccccc2)NC1=O` (H-NGYENPCYKFCE-OH; linker 7-11 via Perfluorobiphenyl(4,4')): 6.05; for `NCCCC[C@H](NC(=O)[C@H](Cc1ccc(O)cc1)NC(=O)[C@H](CS)NC(=O)[C@@H]1CCCN1C(=O)[C@H](CC(N)=O)NC(=O)[C@H](CCC(=O)O)NC(=O)[C@H](Cc1ccc(O)cc1)NC(=O)CNC(=O)[C@@H](N)CC(N)=O)C(=O)N[C@@H](Cc1ccccc1)C(=O)N[C@@H](CS)C(=O)N[C@@H](CCC(=O)O)C(=O)O` (H-NGYENPCYKFCE-OH): 4.67.
Turning to `NCCCC[C@@H]1NC(=O)[C@H](Cc2ccc(O)cc2)NC(=O)[C@@H](NC(=O)[C@@H]2CCCN2C(=O)[C@H](CC(N)=O)NC(=O)[C@H](CCC(=O)O)NC(=O)[C@H](Cc2ccc(O)cc2)NC(=O)CNC(=O)[C@@H](N)CC(N)=O)CCCCn2cc(nn2)C[C@@H](C(=O)N[C@@H](CCC(=O)O)C(=O)O)NC(=O)[C@H](Cc2ccccc2)NC1=O` (H-NGYENP[Lys(N3)]YKF[Pra]E-OH; triazole 7-11), in data set [3], the half-life at 500 µM was 0.675 h. Further, the negative-log Kd (pKd) in [4] is 6.00. The half-life at 100 µM in data set [5] is greater than 2 h; in [6], 0.467 h; in [8] it was 0.333 h. Further, in [1], the negative logarithm of the EC50 (pEC50) is 4.37. Moreover, in data set [2], the pKi was 5.92.
For the molecule `C[C@@]1(C(=O)N[C@@H](CCC(=O)O)C(=O)O)CCCCCC/C=C/CCC[C@](C)(NC(=O)[C@@H]2CCCN2C(=O)[C@H](CC(N)=O)NC(=O)[C@H](CCC(=O)O)NC(=O)[C@H](Cc2ccc(O)cc2)NC(=O)CNC(=O)[C@@H](N)CC(N)=O)C(=O)N[C@@H](Cc2ccc(O)cc2)C(=O)N[C@@H](CCCCN)C(=O)N[C@@H](Cc2ccccc2)C(=O)N1` (H-NGYENP[S5]YKF[S8]E-OH; staple (E) 7-11), the pKi in [2] is 6.10.
On to `NCCCC[C@@H]1NC(=O)[C@H](Cc2ccc(O)cc2)NC(=O)[C@@H](NC(=O)[C@@H]2CCCN2C(=O)[C@H](CC(N)=O)NC(=O)[C@H](CCC(=O)O)NC(=O)[C@H](Cc2ccc(O)cc2)NC(=O)CNC(=O)[C@@H](N)CC(N)=O)CCSCc2ccc(cc2)CSCC[C@@H](C(=O)N[C@@H](CCC(=O)O)C(=O)O)NC(=O)[C@H](Cc2ccccc2)NC1=O`, for which the half-life at 500 µM in data set [3] worked out at 1.5 h. The pKd in data set [4] is 5.98. In addition, the half-life at 100 µM in data set [5], in data set [6] and in [8] was greater than 2 h in each case. For the same molecule, the negative-log EC50 (pEC50) in data set [1] is 4.84. For the same molecule, the pKi in [2] is 6.52.
`NCCCC[C@@H]1NC(=O)[C@H](Cc2ccc(O)cc2)NC(=O)[C@@H](NC(=O)[C@H]2CCCN2C(=O)[C@H](CC(N)=O)NC(=O)[C@@H](CCC(=O)O)NC(=O)[C@@H](Cc2ccc(O)cc2)NC(=O)CNC(=O)[C@@H](N)CC(N)=O)CCSCc2ccc(cc2)CSCC[C@@H](C(=O)N[C@@H](CCC(=O)O)C(=O)O)NC(=O)[C@H](Cc2ccccc2)NC1=O`: the TdeltaS in data set [7] is -2.03 kcal/mol.
As for `NCCCC[C@@H]1NC(=O)[C@H](Cc2ccc(O)cc2)NC(=O)[C@@H](NC(=O)[C@@H]2CCCN2C(=O)[C@H](CC(N)=O)NC(=O)[C@H](CCC(=O)O)NC(=O)[C@H](Cc2ccc(O)cc2)NC(=O)CNC(=O)[C@@H](N)CC(N)=O)CSCc2cccc(n2)CSC[C@@H](C(=O)N[C@@H](CCC(=O)O)C(=O)O)NC(=O)[C@H](Cc2ccccc2)NC1=O` (H-NGYENPCYKFCE-OH; linker 7-11 via Pyridine(2,6-diCH2)), the pKi in data set [2] was 5.19.
Same read-out and setting: as for `NCCCC[C@@H]1NC(=O)[C@H](Cc2ccc(O)cc2)NC(=O)[C@@H](NC(=O)[C@@H]2CCCN2C(=O)[C@H](CC(N)=O)NC(=O)[C@H](CCC(=O)O)NC(=O)[C@H](Cc2ccc(O)cc2)NC(=O)CNC(=O)[C@@H](N)CC(N)=O)CSCc2ccc(cc2)CSC[C@@H](C(=O)N[C@@H](CCC(=O)O)C(=O)O)NC(=O)[C@H](Cc2ccccc2)NC1=O` (H-NGYENPCYKFCE-OH; linker 7-11 via pXylylene), the figure is 6.40.
Same read-out and setting: the same measure for `NCCCC[C@H]1NC(=O)[C@@H](Cc2ccc(O)cc2)NC(=O)[C@H](NC(=O)[C@@H]2CCCN2C(=O)[C@@H](CC(N)=O)NC(=O)[C@H](CCC(=O)O)NC(=O)[C@H](Cc2ccc(O)cc2)NC(=O)CNC(=O)[C@H](N)CC(N)=O)CC(=O)NCC[C@H](C(=O)N[C@H](CCC(=O)O)C(=O)O)NC(=O)[C@@H](Cc2ccccc2)NC1=O`: 3.67.

Values taken from ChEMBL document CHEMBL5380799, “Comprehensive Peptide Cyclization Examination Yields Optimized APP Scaffolds with Improved Affinity toward Mint2” (J Med Chem, 2023).
